Holding throughout (test): Agarose dilution MIC assay
Type in all cases: cell-based

In test [1] the test system is S. mitis. To be noted: S. mitis strain SMT014. An excerpt:
(§1) The agarose dilution assay measures antimicrobial activity of peptides and peptide analogues. The activity is expressed as the minimum inhibitory concentration (MIC) in μg/ml of the peptide.
(§2) In order to mimic in vivo conditions, calcium and magnesium supplemented Mueller Hinton broth is used in combination with a low EEO agarose as the bacterial growth medium. Agarose, rather than agar, is used as the charged groups in agar prevent peptide diffusion through the medium. The medium is autoclaved, then cooled to 50-55° C. in a water bath before aseptic addition of a peptide solution. The same volume of different concentrations of peptide solution is added to the cooled, molten agarose that is then poured into a petri plate to a depth of 3-4 mm and allowed to solidify.
(§3) The bacterial inoculum is adjusted to a 0.5 McFarland turbidity standard (PML Microbiological) and then diluted 1:10 before application on to the agarose plate. The final inoculum applied to the agarose is approximately 10^4 CFU in a 5-8 mm diameter spot. The agarose plates are incubated at 35-37° C. for 16 to 20 hours.

The subject of test [2] is C. jeikeium. The following applies: C. jeikeium strain CJK005.
Description: as §1, §2, §3

Test [3] relates to S. aureus. To be noted: for Minimum Inhibitory Concentration: S. aureus strain SAU014, agarose dilution.
Description: as §1, §2, §3

Test [4] concerns S. pyogenes. The following applies: S. pyogenes strain SPY001.
Description: as §1, §2, §3

Test [5] deals with S. epidermidis. To be noted: for Minimum Inhibitory Concentration: S. epidermidis strain SEP010, agarose dilution.
Description: as §1, §2, §3

For test [6], the system named is P. aeruginosa. To be noted: for Minimum Inhibitory Concentration: P. aeruginosa strain PAE004, agarose dilution.
Description: as §1, §2, §3

The subject of test [7] is C. neoformans. To be noted: C. neoformans strain CNE001.
Description: as §1, §2, §3

Test [8] relates to C. albicans. The following applies: for Minimum Inhibitory Concentration: C. albicans strain CAL002, agarose dilution.
Description: as §1, §2, §3

The subject of test [9] is S. maltophilia. The following applies: S. maltophilia strain SMA002.
Description: as §1, §2, §3

Test [10] concerns S. marcescens. The following applies: S. marcescens strain SMS003.
Description: as §1, §2, §3

Test [11] relates to S. pneumoniae. To be noted: S. pneumoniae strain SPN002.
Description: as §1, §2, §3

Test [12] has as its system A. calcoaceticus. To be noted: A. calcoaceticus strain ACA002.
Description: as §1, §2, §3

Test [13] concerns E. faecalis. To be noted: E. faecalis strain EFS001.
Description: as §1, §2, §3

Test [14] has as its system E. cloacae. The following applies: E. cloacae strain ECL007.
Description: as §1, §2, §3

In test [15] the test system is K. pneumoniae.
Description: as §1, §2, §3

Test [16] relates to E. coli. To be noted: E. coli strain ECO005.
Description: as §1, §2, §3

For r L W V W W V W R R [Peptide 11F67CN], the “Minimum Inhibitory Concentration” value was found to be 1 µg/mL in test [1]; 0.5 µg/mL in test [2]; 2 µg/mL in [3]; 1 µg/mL in test [4]; 1 µg/mL in test [5]; 16 µg/mL in test [6]. In addition, the “Minimum Inhibitory Concentration” value is 8 µg/mL in test [7]; 32 µg/mL in test [8]; 2 µg/mL in test [9]; more than 128 µg/mL in test [10]; 2 µg/mL in [11]; 2 µg/mL in [12]. The “Minimum Inhibitory Concentration” value in [13] worked out at 4 µg/mL; in test [14], 32 µg/mL; in test [15] (K. pnenmoniae strain KPN001), 2 µg/mL; in test [16], 2 µg/mL.
For R L F V W W V F R R [Peptide 11F64CN], the “Minimum Inhibitory Concentration” value in test [1] came to 1 µg/mL; in [2], 0.5 µg/mL; in test [3] it was 1 µg/mL; in [4], 1 µg/mL; in [5], 1 µg/mL; in test [6] it was 16 µg/mL. Moreover, the “Minimum Inhibitory Concentration” value in test [7] was 8 µg/mL; in test [8], 16 µg/mL; in test [9], 1 µg/mL; in test [10], more than 128 µg/mL; in [11], 2 µg/mL; in [12] it was 2 µg/mL. For the same substance, the “Minimum Inhibitory Concentration” value worked out at 2 µg/mL in test [13], 16 µg/mL in test [14], 2 µg/mL in test [15] (K. pnenmoniae strain KPN001) and 2 µg/mL in test [16].
Take “W (Orn) W W (Orn) V A W (Orn) W V (Orn) W [Peptide 11J58CN]”: the “Minimum Inhibitory Concentration” value in test [1] is 1e-06 µg/mL; in [2], 0.5 µg/mL; in test [6], 1.6e-05 µg/mL; in [7], 2 µg/mL; in [9] it was 2 µg/mL; in test [11], 2 µg/mL. The “Minimum Inhibitory Concentration” value in [12] is 1e-06 µg/mL; in [13], 3.2e-05 µg/mL; in [14], 1.6e-05 µg/mL; in test [15] (K. pneumoniae strain KPN001), 2 µg/mL.
Regarding “I L K W V W W V W R R K [Peptide 11B36CN]”, the “Minimum Inhibitory Concentration” value in test [1] was 2 µg/mL; in [2], 1 µg/mL; in test [3], 2 µg/mL; in test [4], 2 µg/mL; in test [5] it was 2 µg/mL; in test [6], 32 µg/mL. Moreover, the “Minimum Inhibitory Concentration” value is 16 µg/mL in test [7]; 8 µg/mL in test [8]; 8 µg/mL in test [9]; more than 128 µg/mL in test [10]; 4 µg/mL in [11]; 2 µg/mL in test [12]. Moreover, the “Minimum Inhibitory Concentration” value in test [13] was found to be 16 µg/mL; in [14], 64 µg/mL; in test [15] (K. pnenmoniae strain KPN001) it was 8 µg/mL; in test [16], 8 µg/mL.
Take “i L K K W P W W P W R R k [Peptide 11E3CN]”: the “Minimum Inhibitory Concentration” value in test [1] amounted to 2 µg/mL; in test [2], 0.5 µg/mL; in test [3], 8 µg/mL; in test [4] it was 1 µg/mL; in [5], 4 µg/mL; in test [6] it was 64 µg/mL. For the same substance, the “Minimum Inhibitory Concentration” value in test [7] is 4 µg/mL; in test [8], 32 µg/mL; in test [9], 64 µg/mL; in test [10], more than 128 µg/mL; in test [11], 4 µg/mL; in test [12] it was 4 µg/mL. The “Minimum Inhibitory Concentration” value was 64 µg/mL in test [13], more than 128 µg/mL in test [14], 32 µg/mL in [15] (K. pnenmoniae strain KPN001) and 8 µg/mL in test [16].
Turning to W V R L W W R R V W [Peptide 11F93CN], the “Minimum Inhibitory Concentration” value amounted to 0.5 µg/mL in test [2]; 2e-06 µg/mL in [3]; 8 µg/mL in [7]; 8 µg/mL in [9]; 4 µg/mL in test [11]; 64 µg/mL in test [15] (K. pneumoniae strain KPN001).
For W P W W P W R R K [Peptide 11G27CN], the “Minimum Inhibitory Concentration” value in test [2] is 0.5 µg/mL; in test [5], 8e-06 µg/mL; in [6], more than 0.000128 µg/mL; in test [7] it was 16 µg/mL; in test [9] it was 64 µg/mL; in test [11] it was 32 µg/mL. Further, the figures for the “Minimum Inhibitory Concentration” value in test [12], in test [15] (K. pneumoniae strain KPN001) and in test [16] were 1.6e-05 µg/mL, more than 128 µg/mL and 6.4e-05 µg/mL, respectively.
Consider “W (Dab) W W (Dab) P (Dab) W (Dab) W P (Dab) W [Peptide 11J68CN]”, for which the “Minimum Inhibitory Concentration” value in test [2] was less than 0.25 µg/mL; in test [4] it was 5e-07 µg/mL; in test [6], 4e-06 µg/mL; in test [7], 1 µg/mL; in [9] it was 4 µg/mL; in test [11], 1 µg/mL. Further, the “Minimum Inhibitory Concentration” value in [12] is 5e-07 µg/mL; in test [14] it was 1.6e-05 µg/mL; in test [15] (K. pneumoniae strain KPN001) it was 4 µg/mL.
“W R W W K P K W R W P K W [Peptide 11J02ACN]”: the “Minimum Inhibitory Concentration” value in test [2] stood at 0.5 µg/mL; in test [3] it was 8e-06 µg/mL; in [7], 16 µg/mL; in test [9], 8 µg/mL; in [11], 16 µg/mL; in test [13], 6.4e-05 µg/mL. The “Minimum Inhibitory Concentration” value was more than 3.2e-05 µg/mL in test [14], 32 µg/mL in [15] (K. pneumoniae strain KPN001) and 1.6e-05 µg/mL in test [16].
Consider “W R W W K V W R W V K W [Peptide 11J36CN]”, for which the “Minimum Inhibitory Concentration” value worked out at 1e-06 µg/mL in test [1]; 0.5 µg/mL in test [2]; 4 µg/mL in [7]; 2 µg/mL in test [9]; 2 µg/mL in [11]; 4 µg/mL in test [15] (K. pneumoniae strain KPN001).
Take “W (Orn) W W (Orn) P (Orn) W (Orn) W P (Orn) W [Peptide 11J67CN]”: the “Minimum Inhibitory Concentration” value in [2] is less than 0.25 µg/mL; in test [3], 2e-06 µg/mL; in test [7] it was 2 µg/mL; in test [9], 1 µg/mL; in test [11], 2 µg/mL; in [12], 1e-06 µg/mL. Also, the “Minimum Inhibitory Concentration” value in test [13] was 6.4e-05 µg/mL; in test [15] (K. pneumoniae strain KPN001) it was 8 µg/mL.
Take “I L R W P W W P W R R K [Peptide 11B7CN]”: the MIC result in test [3] (S. aureus (SA016), Table 6) was “Organism Tested: S. aureus (SA016) MIC = 2 ug/ml”; in test [5] (S. epidermidis (SE010), Table 6) it was “Organism Tested: S. epidermidis (SE010) MIC = 4 ug/ml”; in [6] (P. aeruginosa (PA004), Table 6), “Organism Tested: P. aeruginosa (PA004) MIC = 128 ug/ml”; in test [8] (C. albicans (CA002), Table 6), “Organism Tested: C. albicans (CA002) MIC = 64 ug/ml”.
